The results in this text go back to US11160808B2, “Compounds that enhance Atoh1 expression” (Massachusetts Eye & Ear Infirmary, priority 2008, dated 2021).

Structures are written as SMILES. pIC50: −log10 of the molar value. Read-outs that look alike come from different tables or passages of the source.

One series relates to Math1 mRNA. As to the kind of experiment: Math1 mRNA expression by RT-PCR in HEK cells. The conditions noted are these: among the four randomly selected compounds. The class given is cell-based, human. As for the experimental part:
Ten compounds, randomly selected from the group of 110 compounds identified in Example 2, were further evaluated, as follows. HEK cells were plated on 96 well plates at a density of 100000 cells per well. One day after plating, 0.1, 1, and 5 μM of each positive compound was added per well in a 10% fetal bovine serum (FBS) DMEM solution. Cells were then lysed 48 hours after addition of the compound and Math1 expression was analyzed using a luciferase reporter assay, as described above, and real-time PCR.
RNA was also isolated and Math1 transcripts were amplified using high-throughput RT-PCR.

A further series has as its system Inner ear stem cells. As to the kind of experiment: Hair cell differentiation of inner ear stem cells (Math1-GFP and myosin 7a co-labeling). The conditions noted are these: cells co-labeled with Math1-GFP and myosin 7a; control 1.6%. The format is cell-based. The source says:
Inner ear stem cells were exposed to compound CP.-0000540, which was selected at random from the group of 110 positive compounds described in Example 2.
Hair cell differentiation was increased to 5.1% of total cells compared to 1.6% for control.

Series [1] in a line: LD50 (median lethal dose) determination. The class given is cell-based. The source says: IC50 is a measure of the effectiveness of a compound in inhibiting biological or biochemical function. LD50 is the amount of a compound required to kill half the members of a tested population.
Series [2] concerns Math1 enhancer and minimal promoter Luciferase reporter in HEK cells. Kind of series: Math1 Luciferase reporter assay in HEK cells. The format is cell-based, human. In outline: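 HEK cells stably carrying luciferase under the Math1 enhancer and minimal promoter were treated with compounds for 48 hours at 37° C, then lysed for luminescence, normalized to DMSO. Hits were defined as a 2-fold increase, with 1 μM retinoic acid as positive control. Follow-up used 0.1, 1 and 5 μM for 48 hours in 10% FBS DMEM, read by luciferase and real-time PCR.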

Setting [3] is: Homo sapiens, HEK293; read-out: IC50.
[4] abbreviates: Homo sapiens, HEK293; read-out: Maximum (Fold DMSO).

With `Clc1ccc2nc(-c3ccccc3)n(OCc3ccccc3Cl)c2c1` [CP-0000540, 6-chloro-1-(2-chlorobenzyloxy)-2-phenyl-1H-benzo[d]imidazole], the “increase in Math1 mRNA expression (ranking in words)” value in the series on Math1 mRNA is given as “highest increase”. The Hair cell differentiation in the series with Inner ear stem cells is 5.1 % of total cells. The “LD50” value in series [1] was >30 µM. In addition, in series [2] (setting [3]), the negative logarithm of the IC50 (pIC50) was 5.89. For the same molecule, the maximal fold induction in series [2] (setting [4]) was determined as 2.
As for `COc1ccc(Br)c(-c2nc(-c3cccs3)no2)c1` [CP-0104904, 5-(2-bromo-5-methoxyphenyl)-3-(thiophen-2-yl)-1,2,4-oxadiazole], the “LD50” value in series [1] is >10 µM. The pIC50 in series [2] (setting [3]) is < 5.00. In addition, in series [2] (setting [4]), the maximal fold induction worked out at 2.2.
Taken in the same sequence, the figures for `COc1ccc(-c2csc(-c3c(C)noc3N)n2)cc1` [CP-0105343, 4-(4-(4-methoxyphenyl)thiazol-2-yl)-3-methylisoxazol-5-amine] were >10 µM, 5.52 and 2.
In the same order, the values of `CC(=O)Nc1ccc2nc(NC(=O)c3ccco3)sc2c1` [CP-0105777, N-(6-acetamidobenzo[d]thiazol-2-yl)furan-2-carboxamide] are >10 µM, 6.52 and 2.
Turning to `COc1cccc(C(=O)Nc2nc3ccc(F)cc3s2)c1` [CP-0107060, N-(6-fluorobenzo[d]thiazol-2-yl)-3-methoxybenzamide], the “LD50” value in series [1] was >10 µM. For the same molecule, the negative logarithm of the IC50 (pIC50) in series [2] (setting [3]) was 7.00. In addition, in series [2] (setting [4]), the maximal fold induction stood at 2.2.
Turning to `Cc1ccccc1OCc1nc2ccccc2[nH]1` [CP-0109953, 2-(o-tolyloxymethyl)-1H-benzo[d]imidazole], in series [1], the “LD50” value is >10 µM. In addition, the pIC50 in series [2] (setting [3]) is 7.00. Further, the maximal fold induction in series [2] (setting [4]) was found to be 1.8.
Taken in the same sequence, the figures for `CC(C)Oc1ccc(C(=O)Nc2sccc2C#N)cc1` [CP-0110352, N-(3-cyanothiophen-2-yl)-4-isopropoxybenzamide] were >10 µM, 7.30 and 1.8.
For the molecule `O=C(COc1ccccc1)N1CCc2ccccc21` [CP-0110644, 1-(indolin-1-yl)-2-phenoxyethanone], in series [1], the “LD50” value was >10 µM. In series [2] (setting [3]), the pIC50 was 6.00. Also, the maximal fold induction in series [2] (setting [4]) came to 1.8.
Taken in the same sequence, the figures for `Cc1ccc(CSc2nc3ncccc3o2)cc1` [CP-0130586, 2-(4-methylbenzylthio) oxazolo[4,5-b]pyridine] were >10 µM, 6.30 and 2.2.
In the same order, the values of `Fc1ccccc1-c1noc(NCCCN2CCCCC2)n1` [CP-0130665, 3-(2-fluorophenyl)-N-(3-(piperidin-1-yl)propyl)-1,2,4-oxadiazol-5-amine] are >10 µM, 6.52 and 2.
In the case of `Brc1ccc(C2C=C(c3cccnc3)Nc3nc4ccccc4n32)cc1` (centres unmarked) [CP-0131763, 2-(3-pyridyl)-4-(4-bromophenyl)-1,4-dihydrobenzo[4,5]imi-dazo[1,2-a]pyrimidine], the “LD50” value in series [1] is >10 µM. Moreover, in series [2] (Homo sapiens, HEK293), the pIC50 was 5.70. Also, the maximal fold induction in series [2] (Homo sapiens, HEK293, read-out: Maximum (Fold DMSO)) is 2.4.
For the molecule `Cc1cccc(Nc2nc(N)c(C(=O)C(C)C)s2)c1` [CP-0134381, 1-(4-amino-2-(m-tolylamino)thiazol-5-yl)-2-methylpropan-1-one], the “LD50” value in series [1] is >10 µM. Further, in series [2] (setting [3]), the negative-log IC50 (pIC50) is 5.70. Moreover, the maximal fold induction in series [2] (setting [4]) amounted to 2.2.
On to `COc1ccc(-c2nc3ccccc3n2CCc2ccccc2)cc1` [CP-0193184, 2-(4-methoxyphenyl)-1-phenethyl-1H-benzo[d]imidazole], for which the “increase in Math1 mRNA expression (ranking in words)” value in the series on Math1 mRNA is “highest increase”. Moreover, in series [1], the “LD50” value is >30 µM. Further, the pIC50 in series [2] (setting [3]) is < 5.00.
